Molecules are shown by their SMILES. pIC50: −log10 of the molar value. Values joined by “and” are separate entries in the source; they are usually repeats but may differ in a detail not shown here. Equal values may be shown once.

The experiment relates to 171881-019-R-J1-PDC complex spheroid growth, % test/control. Kind of experiment: Anticancer human tumor 171881-019-R-J1-PDC patient-derived invasive breast carcinoma cell line growth inhibition [Asc]. The note with it: for viability, T/C: stronger effect = lower value. The method in brief:
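Complex spheroids combining tumor cells with HUVEC endothelial cells and human MSCs, at 37 degrees C, 5% CO2; agents tested alone or combined, half-log dilutions from at or near clinical Cmax, or 10 microM if Cmax unknown.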

[1] abbreviates: curve of first compound, second compound 0.1 µM.
Setting [2] is: curve of first compound, second compound 0.316 µM.
The mark [3] stands for this setting: curve of first compound, second compound 1 µM.
Setting [4] is: curve of first compound, second compound 3.16 µM.
Where [5] appears, read: curve of first compound, second compound 10 µM.
The mark [6] stands for this setting: second compound 0.1 µM, first compound 0.0316 µM.
[7] abbreviates: second compound 0.1 µM, first compound 0.1 µM.
Setting [8] is: second compound 0.1 µM, first compound 0.316 µM.
[9] abbreviates: second compound 0.1 µM, first compound 1 µM.
The mark [10] stands for this setting: second compound 0.1 µM, first compound 3.16 µM.
Where [11] appears, read: second compound 0.1 µM, first compound 10 µM.
[12] abbreviates: second compound 0.316 µM, first compound 0.0316 µM.
[13] abbreviates: second compound 0.316 µM, first compound 0.1 µM.
[14] abbreviates: second compound 0.316 µM, first compound 0.316 µM.
Where [15] appears, read: second compound 0.316 µM, first compound 1 µM.
The mark [16] stands for this setting: second compound 0.316 µM, first compound 3.16 µM.
The mark [17] stands for this setting: second compound 0.316 µM, first compound 10 µM.
[18] abbreviates: second compound 1 µM, first compound 0.0316 µM.
Where [19] appears, read: second compound 1 µM, first compound 0.1 µM.
[20] abbreviates: second compound 1 µM, first compound 0.316 µM.
Setting [21] is: second compound 1 µM, first compound 1 µM.
Where [22] appears, read: second compound 1 µM, first compound 3.16 µM.
The mark [23] stands for this setting: second compound 1 µM, first compound 10 µM.
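For viability, T/C in this document: spheroids exposed to compounds for 7 days.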

Consider `O=C(c1cc(Cc2n[nH]c(=O)c3ccccc23)ccc1F)N1CCN(C(=O)C2CC2)CC1` + Cc1c(S(C)(=O)=O)c(-c2cc(F)cc(N3CCN(c4ccc(NS(=O)(=O)c5ccc(NC(CCN6CCC(C(=O)OCCCP(=O)(O)O)CC6)CSc6ccccc6)c(S(=O)(=O)C(F)(F)F)c5)cc4)CC3)c2)c(-c2ccc(Cl)cc2)n1C(C)C, for which the pIC50 by setting is: under setting [1], under 5.00; under setting [2], under 5.00; under setting [3], under 5.00; under setting [4], under 5.00; under setting [5], under 5.00. The viability, T/C under setting [6] is 106%; the viability, T/C under setting [7] was 102%; the viability, T/C under setting [8] is 103%; the viability, T/C under setting [9] is 124%; the viability, T/C under setting [10] is 102%; the viability, T/C under setting [11] was 111%. The viability, T/C was 136% under setting [12]; 125% under setting [13]; 134% under setting [14]; 125% under setting [15]; 127% under setting [16]; 134% under setting [17]. The viability, T/C by setting is: under setting [18], 132%; under setting [19], 136%; under setting [20], 143%; under setting [21], 168%; under setting [22], 169%; under setting [23], 180%. The viability, T/C reads like this: (second compound 3.16 µM, first compound 0.0316 µM) 158%; (second compound 3.16 µM, first compound 0.1 µM) 200%; (second compound 3.16 µM, first compound 0.316 µM) 193%; (second compound 3.16 µM, first compound 1 µM) 164%; (second compound 3.16 µM, first compound 3.16 µM) 197%; (second compound 3.16 µM, first compound 10 µM) 184%. Besides, the viability, T/C reads like this: (second compound 10 µM, first compound 0.0316 µM) 212%; (second compound 10 µM, first compound 0.1 µM) 208%; (second compound 10 µM, first compound 0.316 µM) 228%; (second compound 10 µM, first compound 1 µM) 227%; (second compound 10 µM, first compound 3.16 µM) 209%; (second compound 10 µM, first compound 10 µM) 175%.

Turning to `Cc1nc(N2CCC3(CC2)COC(C)C3N)c(CO)nc1Sc1ccnc(N)c1Cl` (stereo unspecified), the viability, T/C (compound 0.00949 µM) is 123% and 94.5% and 97.3%; the viability, T/C (compound 0.03 µM) was 137% and 100% and 92%; the viability, T/C (compound 0.0949 µM) is 214% and 125% and 157%; the viability, T/C (compound 0.3 µM) was 268% and 160% and 188%; the viability, T/C (compound 0.949 µM) is 225% and 150% and 152%; the viability, T/C (compound 3 µM) was 168% and 117% (2×). Further, the pIC50 (curve of compound) is under 5.52.

As to `C=C(F)C(=O)N1CCN(c2nc(OCC3CCCN3C)nc3c2CCN(c2cccc4cccc(Cl)c24)C3)CC1CC#N` (stereo unspecified) + CNC(C)C(=O)NC1CN(S(=O)(=O)c2cccc(S(=O)(=O)N3CCC4CCC(C(=O)NC(c5ccccc5)c5ccccc5)N4C(=O)C(NC(=O)C(C)NC)C3)c2)CCC2CCC(C(=O)NC(c3ccccc3)c3ccccc3)N2C1=O, the pIC50 reads like this: (curve of first compound, second compound 0.01 µM) 5.25; (curve of first compound, second compound 0.0316 µM) 5.26; under setting [1], 5.24; under setting [2], 5.26; under setting [3], 5.27. For the same compound, the viability, T/C runs as follows: (second compound 0.01 µM, first compound 0.0316 µM) 93.5%; (second compound 0.01 µM, first compound 0.1 µM) 91.3%; (second compound 0.01 µM, first compound 0.316 µM) 95%; (second compound 0.01 µM, first compound 1 µM) 101%; (second compound 0.01 µM, first compound 3.16 µM) 113%; (second compound 0.01 µM, first compound 10 µM) 1.9%. The viability, T/C is 90% (second compound 0.0316 µM, first compound 0.0316 µM); 88.8% (second compound 0.0316 µM, first compound 0.1 µM); 76.7% (second compound 0.0316 µM, first compound 0.316 µM); 112% (second compound 0.0316 µM, first compound 1 µM); 112% (second compound 0.0316 µM, first compound 3.16 µM); 0.82% (second compound 0.0316 µM, first compound 10 µM). Besides, the viability, T/C is 95.9% under setting [6]; 97.2% under setting [7]; 100% under setting [8]; 104% under setting [9]; 107% under setting [10]; 1.02% under setting [11]. Besides, the viability, T/C under setting [12] was 81.3%; the viability, T/C under setting [13] was 91.1%; the viability, T/C under setting [14] was 86.1%; the viability, T/C under setting [15] was 106%; the viability, T/C under setting [16] is 111%; the viability, T/C under setting [17] is 2.51%. The viability, T/C under setting [18] was 90.3%; the viability, T/C under setting [19] is 84.6%; the viability, T/C under setting [20] was 86.5%; the viability, T/C under setting [21] is 95.5%; the viability, T/C under setting [22] is 106%; the viability, T/C under setting [23] is 1.17%.

On to `Cc1nc(N2CCC3(CC2)COC(C)C3N)c(CO)nc1Sc1ccnc(N)c1Cl` (stereo unspecified) + Cc1c(S(C)(=O)=O)c(-c2cc(F)cc(N3CCN(c4ccc(NS(=O)(=O)c5ccc(NC(CCN6CCC(C(=O)OCCCP(=O)(O)O)CC6)CSc6ccccc6)c(S(=O)(=O)C(F)(F)F)c5)cc4)CC3)c2)c(-c2ccc(Cl)cc2)n1C(C)C, for which the pIC50 under setting [1] is under 5.52; the pIC50 under setting [2] was under 5.52; the negative logarithm of the IC50 (pIC50) under setting [3] is under 5.52; the pIC50 under setting [4] was 5.66; the pIC50 under setting [5] was 6.05. Moreover, the viability, T/C is, setting by setting: (second compound 0.1 µM, first compound 0.00949 µM) 127%; (second compound 0.1 µM, first compound 0.03 µM) 182%; (second compound 0.1 µM, first compound 0.0949 µM) 201%; (second compound 0.1 µM, first compound 0.3 µM) 141%; (second compound 0.1 µM, first compound 0.949 µM) 118%; (second compound 0.1 µM, first compound 3 µM) 102%. Moreover, the viability, T/C is 161% (second compound 0.316 µM, first compound 0.00949 µM); 223% (second compound 0.316 µM, first compound 0.03 µM); 187% (second compound 0.316 µM, first compound 0.0949 µM); 137% (second compound 0.316 µM, first compound 0.3 µM); 97.3% (second compound 0.316 µM, first compound 0.949 µM); 75.4% (second compound 0.316 µM, first compound 3 µM). The viability, T/C by setting is: (second compound 1 µM, first compound 0.00949 µM) 181%; (second compound 1 µM, first compound 0.03 µM) 201%; (second compound 1 µM, first compound 0.0949 µM) 144%; (second compound 1 µM, first compound 0.3 µM) 104%; (second compound 1 µM, first compound 0.949 µM) 80.4%; (second compound 1 µM, first compound 3 µM) 66.6%. Moreover, the viability, T/C (second compound 3.16 µM, first compound 0.00949 µM) is 180%; the viability, T/C (second compound 3.16 µM, first compound 0.03 µM) is 174%; the viability, T/C (second compound 3.16 µM, first compound 0.0949 µM) is 113%; the viability, T/C (second compound 3.16 µM, first compound 0.3 µM) was 80.5%; the viability, T/C (second compound 3.16 µM, first compound 0.949 µM) was 59%; the viability, T/C (second compound 3.16 µM, first compound 3 µM) was 51.7%. For the same compound, the viability, T/C runs as follows: (second compound 10 µM, first compound 0.00949 µM) 177%; (second compound 10 µM, first compound 0.03 µM) 148%; (second compound 10 µM, first compound 0.0949 µM) 112%; (second compound 10 µM, first compound 0.3 µM) 76.7%; (second compound 10 µM, first compound 0.949 µM) 41.8%; (second compound 10 µM, first compound 3 µM) 40.5%.

For the compound `CNC(C)C(=O)NC1CN(S(=O)(=O)c2cccc(S(=O)(=O)N3CCC4CCC(C(=O)NC(c5ccccc5)c5ccccc5)N4C(=O)C(NC(=O)C(C)NC)C3)c2)CCC2CCC(C(=O)NC(c3ccccc3)c3ccccc3)N2C1=O` (stereo unspecified), the viability, T/C runs as follows: (compound 0.00316 µM) 102% and 97.8%; (compound 0.1 µM) 95.1% [middle of 15 runs]. The pIC50 by setting is: (compound alone, run of 10/03/2022) under 6.00; (curve of compound) under 6.00.
